The nature of this data set: gradient 5% acetonitrile 3 min, to 50% in 2 min, to 85% in 15 min, held 3 min, 100 µL/min. The conditions noted are these: column: Zorbax Extend-C18 2.1 x 50 mm; eluents: water / acetonitrile, 0.1% formic acid. The procedure, abridged: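 Pure standards were analyzed in mixtures of ~100 molecules using HPLC coupled to a quadrupole time-of-flight mass spectrometer, in both positive and negative ionization mode. Separation used a Zorbax Extend-C18 column (2.1 × 50 mm, 1.8 μm) at 100 μL/min, with water and acetonitrile each containing 0.1% formic acid. Dead and dwell volumes were 40 μL and 900 μL, and data were collected over 3 months. Retention time was read from computationally picked adduct peaks, each inspected manually.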
On to `Cc1ccccc1NC(=O)Cn1nc(N2CCSCC2)c2ccccc2c1=O`, for which the RP-LC retention time was 892 s.
On to `Cn1ncc(NC(=O)Cc2cccc(F)c2)c(N2CCOCC2)c1=O`, for which the RP-LC retention time came to 722 s.
Compound `Cc1ccccc1CNC(=O)C1CC(=O)N(c2ccc3c(c2)CCN3C(=O)C2CC2)C1` (stereo not given) gave an RP-LC retention time of 702 s.
On to `CSc1cccc(NC(=O)Nc2ccccc2C(N)=O)c1`, for which the RP-LC retention time turned out to be 856 s.
Then `Cc1cc(N2CCC(NC(=O)Nc3ccc(Cl)cc3)C2=O)ccc1F` (stereo not given), with 920 s; and `O=c1ccc(-c2ccc3c(c2)OCO3)nn1Cc1nc(-c2ccc(C(F)(F)F)cc2)no1`, with 1070 s.
On to `CCN1CCC2(CC1)OC(=O)C(C)=C2C(=O)Nc1ccc(Br)cc1F`, for which the RP-LC retention time was found to be 650 s.
As to `CCCCN(C)CCCNC(=O)c1ccc2c(c1)NC(=O)C(C(C)CC)N2` (stereo not given), the RP-LC retention time came to 612 s.
For `O=C(Nc1ccc(Cn2cncn2)cc1)c1cccs1` the value was 661 s.
Compound `COc1ccc(-c2nc(CN3C(=O)C(O)(c4ccc(C)cc4)c4ccccc43)c(C)o2)cc1` (stereo not given) returned an RP-LC retention time of 1090 s.
In the case of `OCCNCCNCc1ccc(-c2ccccc2F)o1`, the RP-LC retention time was found to be 563 s.
For `COC(=O)c1cc(S(=O)(=O)N2CCCC2C(=O)NCc2ccccc2C)cn1C` (stereo not given) the value was 846 s.
For the compound `CSc1ccc(CNC(=O)C2CCN(c3c(C#N)cnc4ccc(Cl)cc34)CC2)cc1`, the RP-LC retention time was 960 s.
For `Cc1cccc(-c2nc(C3CC(=O)N(c4ccc(Cl)cc4)C3)no2)c1` (stereo not given) the value was 1110 s.
In the case of `O=C(CN1C(=O)C2CCCCN2c2ccc(C(=O)N3CCCC3)cc21)NCC1CCCO1` (stereo not given), the RP-LC retention time is 672 s.
As to `COc1ccc(N(C)c2nnc(-c3ccc(NC(=O)c4ccco4)cc3)s2)cc1`, the RP-LC retention time was determined as 712 s.
Take `O=C(NC1CCCC1)c1nc(-c2ccnc(N3CCCCC3)c2)no1`: the RP-LC retention time turned out to be 763 s.
Then `CC(C)NC(=O)C1CCN(c2nc3ccc(-c4ccsc4)nc3s2)CC1`, with 796 s; and `O=C(CCc1nc(N2CCCCC2)c2c(-c3ccc(F)cc3)noc2n1)N1CCOCC1`, with 902 s; and `Cc1ccccc1S(=O)(=O)N1CCn2c(nn(CC3CC3)c2=O)C1`, with 766 s.
For `O=C(NCCc1ccc(Cl)cc1)c1nc(Cn2c(=O)oc3ccccc32)no1` the value was 969 s; for `CCOc1ccc(NC(=O)c2oc3cc(Br)ccc3c2C)c2cccnc12`, 800 s.
Then `Cc1cc(NC(=O)CSc2nnnn2C)sn1`, with 596 s; and `Cc1cc(C(=O)N2CC3CN(S(=O)(=O)c4cccc(F)c4)CC(C2)O3)c(C)o1`, with 828 s.
Compound `COc1ccc2[nH]c(=O)c(CCC(=O)NCCc3ccccn3)cc2c1` gave an RP-LC retention time of 576 s.
`Cc1sc2ncnc(N3CCCCC3)c2c1C(=O)NCc1cc(F)ccc1F` returned an RP-LC retention time of 1020 s.
For `CSc1ccc(CNC(=O)CN2C(=O)C3CCCCN3c3ccc(C(=O)N4CCCC4)cc32)cc1` (stereo not given) the value was 850 s.
The compound `Cc1cc(F)ccc1NC(=O)Cn1nc2cc(-c3ccccn3)nc(C)n2c1=O` gave an RP-LC retention time of 746 s.
Compound `CCOC(=O)c1cc(C2CC2)nc2c1c(=O)n(Cc1cccc(Cl)c1)c(=O)n2C` displayed an RP-LC retention time of 1200 s.
Then `O=C(NC1CCCCCC1)c1nc(Nc2ccccc2)c2ccccc2n1`, with 917 s.
As to `CC(=O)Nc1ccc(-n2cnc(C(=O)N3CCN(c4ccc(C)cc4)CC3)c2)nc1`, the RP-LC retention time is 682 s.
Compound `CCOC(=O)N1CCC(NC(=O)C(=O)NCCC2=CCCCC2)CC1` displayed an RP-LC retention time of 842 s.
Then `CCc1cc(=O)n(CC(=O)Nc2ccccc2)c(N2CCOCC2)n1`, with 687 s.
In turn, `O=c1c2cc(-c3ccc4c(c3)OCO4)nn2ccn1Cc1cccc(F)c1` had an RP-LC retention time of 981 s.
In the case of `CCn1cnc2ccc(-c3noc(-c4ccccc4)n3)cc21`, the RP-LC retention time amounted to 758 s.
Then `CCS(=O)(=O)N1CC(=O)N(c2ccc(Cl)cc2)C(C)(C(=O)NCc2ccccc2)C1` (stereo not given), with 848 s; and `COC(=O)c1ncn2c1C(=O)N(c1ccc(F)cc1)C(C)(C(=O)NCc1ccc(C)cc1)C2` (stereo not given), with 732 s.
On to `COc1ccc(CCNC(=O)C2CCCN(S(=O)(=O)c3ccc(OC)c(Cl)c3)C2)cc1` (stereo not given), for which the RP-LC retention time was 938 s.
Then `CCN1CCN(C(=O)CN2C(=O)COc3ccc(C(=O)N(CC)CC)cc32)CC1`, with 581 s.
Compound `CC(C)NC(=O)CCC(=O)N1CCCn2nc(-c3cn(C)c4ccccc34)cc21` gave an RP-LC retention time of 718 s.
Consider `O=S(=O)(Nc1ccccc1)c1ccc(-c2nnc(C3CCC3)o2)o1`, for which the RP-LC retention time amounted to 883 s.
Then `CCOC(=O)c1sc(NC(=O)C2CCCN(S(C)(=O)=O)C2)nc1-c1ccccc1` (stereo not given), with 863 s; and `Cc1ccccc1Cc1nc2ccccc2n1CC(N)=O`, with 570 s; and `Cc1nnc(-c2coc(S(=O)(=O)N3CCOCC3)c2)o1`, with 654 s.
For the compound `CC1CCN(c2cc(C(=O)O)c3cc(NC(=O)c4ccc(Br)cc4)ccc3n2)CC1`, the RP-LC retention time came to 689 s.
The compound `COc1ccccc1-c1noc(C2CCCN2C(=O)Nc2ccccc2C)n1` (stereo not given) yielded an RP-LC retention time of 827 s.
The compound `O=C(NC1CCCCCC1)c1ccc2c(c1)ncn2CCN1CCCC1` gave an RP-LC retention time of 597 s.
Then `O=C(c1ccco1)N1CCc2c(c(CO)nn2Cc2ccccc2)C1`, with 657 s.
For `Ic1ccc(N2CCN(Cc3c[nH]c4ncccc34)CC2)cc1` the value was 727 s; for `CCOC(=O)c1cnc2nc(C)ccc2c1Nc1cc(Cl)ccc1F`, 774 s; for `Cc1ccc(-c2noc(Cc3nnc(-c4ccc(C)c(C)c4)o3)n2)cc1`, 1200 s.
Then `Cc1ccc(Nc2c(-c3cccc(Br)c3)nc3ccc(Br)cn23)cc1`, with 1140 s; and `COc1ccc(CN2C(=O)COC[C@H]2C(=O)NCC2CC2)c(OC)c1`, with 696 s.
Regarding `Cc1oc(-c2ccc(C(=O)NCCCN3CCCC3)cc2)nc1COc1ccccc1`, the RP-LC retention time is 715 s.
Then `CCCNc1cc(N2CCC(CCC(=O)Nc3ccc(OCC)cc3)CC2)ncn1`, with 736 s.
`COCCNC(=O)c1nc(Nc2ccc(F)cc2)c2ccccc2n1` returned an RP-LC retention time of 681 s.
With `COc1cc(NC(=O)N2CCCC(Cn3cnc4cccnc43)C2)cc(OC)c1` (stereo not given), the RP-LC retention time came out at 682 s.
Regarding `COc1ccc(OC)c(CNc2c(-c3nc(C(C)C)no3)cnc3nc(C)ccc23)c1`, the RP-LC retention time was found to be 784 s.
`CCCn1cc(C(=O)NCc2ccc(C)cc2)c(S(=O)(=O)N2CCC(C)CC2)n1` displayed an RP-LC retention time of 1140 s.
`Cc1nn(-c2ccccc2)c(C)c1S(=O)(=O)N1CCC(C(=O)Nc2ccccc2)CC1` showed an RP-LC retention time of 926 s.
In the case of `CCCC(=O)Nc1ccc2c(c1)nc(CN1CCN(S(C)(=O)=O)CC1)n2CC`, the RP-LC retention time was found to be 608 s.
In turn, `O=C(NC1CC1)c1nnn2c1COC(c1ccc(Cl)cc1)C2` (stereo not given) had an RP-LC retention time of 859 s.
`CCCn1cc(CCNC(=O)c2cncc(Br)c2)c2cccnc21` had an RP-LC retention time of 723 s.
As for `COc1ccccc1-c1nnc(-c2cc(S(=O)(=O)N3CCCCC3)ccc2Cl)o1`, the RP-LC retention time was 1080 s.
Then `COc1ccc(NC(=O)C2CCc3nc(N4CCOCC4)ncc3C2)c(C)c1` (stereo not given), with 702 s; and `CCNC(=O)c1n[nH]c2c1CN(Cc1sccc1C)CC2`, with 572 s.
As to `O=C1CC(/C=C/c2ccccc2)Cc2nc(N3CCN(c4ccccn4)CC3)ncc21` (stereo not given), the RP-LC retention time turned out to be 754 s.
For `CC(C)NC(=O)N1CCCC1c1noc(CCC(=O)NC2CC2)n1` (stereo not given), the RP-LC retention time was 603 s.
Compound `O=C(c1cn(-c2cc(N3CCSCC3)ncn2)cn1)N1CCN(c2ncccn2)CC1` gave an RP-LC retention time of 739 s.
Then `CCCOc1ccc(C2C(C(=O)N3CCOCC3)=C(C)NC3=C2C(=O)CCC3)cc1OC` (stereo not given), with 964 s; and `Cc1cccnc1NC(=O)c1c(O)c2cc(F)cc3c2n(c1=O)C(C)CC3` (stereo not given), with 848 s.
For `CCOC(=O)N1CCN(C(=O)Cc2c(C)nn(-c3nc(-c4ccc(C)cc4)cs3)c2C)CC1` the value was 1070 s.
For `CN(C)C(=O)c1ccc2c(c1)nnn2CCNC(=O)Nc1ccccc1F` the value was 638 s; for `CN1C(=O)c2cc(S(=O)(=O)Nc3ccc(F)cc3Cl)ccc2Oc2cccnc21`, 943 s; for `O=C(Nc1cccc([N+](=O)[O-])c1)N1CCN(c2ccccc2)CC1`, 829 s.
For `Cc1ccccc1-n1c(Cn2cnc3c(N)ncnc32)nc2cccc(C)c2c1=O`, the RP-LC retention time was found to be 719 s.
For `CC(C)c1ccc(OCC(=O)Oc2ccc3c(c2)ncn3C)cc1` the value was 662 s.
Then `O=C(NC1CCN(c2cc(-c3ccccc3)[nH]n2)C1)c1ccoc1` (stereo not given), with 650 s; and `O=C(NCc1ccccc1Br)C1CCN(c2cnc3nccnc3c2)CC1`, with 739 s.
For `Cc1ccccc1Nc1c(-c2ccc(N3CCOCC3)cc2)nc2c(C)cccn12` the value was 729 s.
